Assay results taken from paper PMC4441267.

Assay: RuAAC macrocyclisation of azide/terminal alkyne linear peptidomimetics to 1,5-triazole ([Cp*RuCl]4 0.1 eq, Ar-degassed), then Boc removal (TMSCl/MeOH GP4 or HCl/dioxane GP5)
Conditions: toluene (reflux), 1.25 mM, 111.0 °C, 18.0 h, 2 steps

Compound: COC(=O)[C@@H]1CNC(=O)[C@H](Cc2ccccc2)n2nncc2CCC(=O)NCC[C@H](N)C(=O)N1 [Boc-Dab(4-pentynoyl)-Dap(N3-Phe)-OMe]
- ring closure, yield over several steps (from C#CCCC(=O)NCC[C@H](NC(=O)OC(C)(C)C)C(=O)N[C@@H](CNC(=O)[C@H](Cc1ccccc1)N=[N+]=[N-])C(=O)OC, 16-membered ring): 60%

Compound: COC(=O)[C@@H]1CCCCn2nncc2CCC(=O)NCC[C@H](N)C(=O)N1 [Boc-Dab(4-pentynoyl)-Lys(N3)-OMe]
- ring closure, yield over several steps (from C#CCCC(=O)NCC[C@H](NC(=O)OC(C)(C)C)C(=O)N[C@@H](CCCCN=[N+]=[N-])C(=O)OC, 16-membered ring): 99%

Compound: COC(=O)[C@@H]1CCCCNC(=O)[C@H](Cc2ccccc2)n2nncc2CCC(=O)NCC[C@H](N)C(=O)N1 [Boc-Dab(4-pentynoyl)-Lys(N3-Phe)-OMe]
- ring closure, yield over several steps (from C#CCCC(=O)NCC[C@H](NC(=O)OC(C)(C)C)C(=O)N[C@@H](CCCCNC(=O)[C@H](Cc1ccccc1)N=[N+]=[N-])C(=O)OC, 19-membered ring): 90%

Compound: COC(=O)[C@@H]1CCCn2nncc2CCC(=O)NCC[C@H](N)C(=O)N1 [Boc-Dab(4-pentynoyl)-Orn(N3)-OMe]
- ring closure, yield over several steps (from C#CCCC(=O)NCC[C@H](NC(=O)OC(C)(C)C)C(=O)N[C@@H](CCCN=[N+]=[N-])C(=O)OC, 15-membered ring): 82%

Compound: COC(=O)[C@@H]1Cc2ccc(cc2)-n2nncc2CCC(=O)NCC[C@H](N)C(=O)N1 [Boc-Dab(4-pentynoyl)-Phe(4-N3)-OMe]
- ring closure, yield over several steps (from C#CCCC(=O)NCC[C@H](NC(=O)OC(C)(C)C)C(=O)N[C@@H](Cc1ccc(N=[N+]=[N-])cc1)C(=O)OC, 17-membered ring): 83%

Compound: COC(=O)[C@@H]1CNC(=O)[C@H](Cc2ccccc2)n2nncc2CCCC(=O)NCC[C@H](N)C(=O)N1 [Boc-Dab(5-hexynoyl)-Dap(N3-Phe)-OMe]
- ring closure, yield over several steps (from C#CCCCC(=O)NCC[C@H](NC(=O)OC(C)(C)C)C(=O)N[C@@H](CNC(=O)[C@H](Cc1ccccc1)N=[N+]=[N-])C(=O)OC, 17-membered ring): 99%

Compound: COC(=O)[C@@H]1CCCCn2nncc2CCCC(=O)NCC[C@H](N)C(=O)N1 [Boc-Dab(5-hexynoyl)-Lys(N3)-OMe]
- ring closure, yield over several steps (from C#CCCCC(=O)NCC[C@H](NC(=O)OC(C)(C)C)C(=O)N[C@@H](CCCCN=[N+]=[N-])C(=O)OC, 17-membered ring): 99%

Compound: COC(=O)[C@@H]1CCCCNC(=O)[C@H](Cc2ccccc2)n2nncc2CCCC(=O)NCC[C@H](N)C(=O)N1 [Boc-Dab(5-hexynoyl)-Lys(N3-Phe)-OMe]
- ring closure, yield over several steps (from C#CCCCC(=O)NCC[C@H](NC(=O)OC(C)(C)C)C(=O)N[C@@H](CCCCNC(=O)[C@H](Cc1ccccc1)N=[N+]=[N-])C(=O)OC, 20-membered ring): 87%

Compound: COC(=O)[C@@H]1CCCn2nncc2CCCC(=O)NCC[C@H](N)C(=O)N1 [Boc-Dab(5-hexynoyl)-Orn(N3)-OMe]
- ring closure, yield over several steps (from C#CCCCC(=O)NCC[C@H](NC(=O)OC(C)(C)C)C(=O)N[C@@H](CCCN=[N+]=[N-])C(=O)OC, 16-membered ring): 99%

Compound: COC(=O)[C@@H]1Cc2ccc(cc2)-n2nncc2CCCC(=O)NCC[C@H](N)C(=O)N1 [Boc-Dab(5-hexynoyl)-Phe(4-N3)-OMe]
- ring closure, yield over several steps (from C#CCCCC(=O)NCC[C@H](NC(=O)OC(C)(C)C)C(=O)N[C@@H](Cc1ccc(N=[N+]=[N-])cc1)C(=O)OC, 18-membered ring): 97%

Compound: COC(=O)[C@@H]1CNC(=O)[C@H](Cc2ccccc2)n2nncc2CNC(=O)NCC[C@H](N)C(=O)N1 [Boc-Dab(CONH-propargyl)-Dap(N3-Phe)-OMe]
- ring closure, yield over several steps (from C#CCNC(=O)NCC[C@H](NC(=O)OC(C)(C)C)C(=O)N[C@@H](CNC(=O)[C@H](Cc1ccccc1)N=[N+]=[N-])C(=O)OC, 16-membered ring): 52%

Compound: COC(=O)[C@@H]1CCCCn2nncc2CNC(=O)NCC[C@H](N)C(=O)N1 [Boc-Dab(CONH-propargyl)-Lys(N3)-OMe]
- ring closure, yield over several steps (from C#CCNC(=O)NCC[C@H](NC(=O)OC(C)(C)C)C(=O)N[C@@H](CCCCN=[N+]=[N-])C(=O)OC, 16-membered ring): 99%

Compound: COC(=O)[C@@H]1CCCCNC(=O)[C@H](Cc2ccccc2)n2nncc2CNC(=O)NCC[C@H](N)C(=O)N1 [Boc-Dab(CONH-propargyl)-Lys(N3-Phe)-OMe]
- ring closure, yield over several steps (from C#CCNC(=O)NCC[C@H](NC(=O)OC(C)(C)C)C(=O)N[C@@H](CCCCNC(=O)[C@H](Cc1ccccc1)N=[N+]=[N-])C(=O)OC, 19-membered ring): 78%

Compound: COC(=O)[C@@H]1CCCn2nncc2CNC(=O)NCC[C@H](N)C(=O)N1 [Boc-Dab(CONH-propargyl)-Orn(N3)-OMe]
- ring closure, yield over several steps (from C#CCNC(=O)NCC[C@H](NC(=O)OC(C)(C)C)C(=O)N[C@@H](CCCN=[N+]=[N-])C(=O)OC, 15-membered ring): 99%

Compound: COC(=O)[C@@H]1Cc2ccc(cc2)-n2nncc2CNC(=O)NCC[C@H](N)C(=O)N1 [Boc-Dab(CONH-propargyl)-Phe(4-N3)-OMe]
- ring closure, yield over several steps (from C#CCNC(=O)NCC[C@H](NC(=O)OC(C)(C)C)C(=O)N[C@@H](Cc1ccc(N=[N+]=[N-])cc1)C(=O)OC, 17-membered ring): 40%

Compound: COC(=O)[C@@H]1CNC(=O)[C@H](Cc2ccccc2)n2nncc2CCC(=O)NC[C@H](N)C(=O)N1 [Boc-Dap(4-pentynoyl)-Dap(N3-Phe)-OMe]
- ring closure, yield over several steps (from C#CCCC(=O)NC[C@H](NC(=O)OC(C)(C)C)C(=O)N[C@@H](CNC(=O)[C@H](Cc1ccccc1)N=[N+]=[N-])C(=O)OC, 15-membered ring): 89%

Compound: COC(=O)[C@@H]1CCCCn2nncc2CCC(=O)NC[C@H](N)C(=O)N1 [Boc-Dap(4-pentynoyl)-Lys(N3)-OMe]
- ring closure, yield over several steps (from C#CCCC(=O)NC[C@H](NC(=O)OC(C)(C)C)C(=O)N[C@@H](CCCCN=[N+]=[N-])C(=O)OC, 15-membered ring): 88%

Compound: COC(=O)[C@@H]1CCCCNC(=O)[C@H](Cc2ccccc2)n2nncc2CCC(=O)NC[C@H](N)C(=O)N1 [Boc-Dap(4-pentynoyl)-Lys(N3-Phe)-OMe]
- ring closure, yield over several steps (from C#CCCC(=O)NC[C@H](NC(=O)OC(C)(C)C)C(=O)N[C@@H](CCCCNC(=O)[C@H](Cc1ccccc1)N=[N+]=[N-])C(=O)OC, 18-membered ring): 99%

Compound: COC(=O)[C@@H]1CCCn2nncc2CCC(=O)NC[C@H](N)C(=O)N1 [Boc-Dap(4-pentynoyl)-Orn(N3)-OMe]
- ring closure, yield over several steps (from C#CCCC(=O)NC[C@H](NC(=O)OC(C)(C)C)C(=O)N[C@@H](CCCN=[N+]=[N-])C(=O)OC, 14-membered ring): 99%

Compound: COC(=O)[C@@H]1Cc2ccc(cc2)-n2nncc2CCC(=O)NC[C@H](N)C(=O)N1 [Boc-Dap(4-pentynoyl)-Phe(4-N3)-OMe]
- ring closure, yield over several steps (from C#CCCC(=O)NC[C@H](NC(=O)OC(C)(C)C)C(=O)N[C@@H](Cc1ccc(N=[N+]=[N-])cc1)C(=O)OC, 16-membered ring): 33%

Compound: COC(=O)[C@@H]1CNC(=O)[C@H](Cc2ccccc2)n2nncc2CCCC(=O)NC[C@H](N)C(=O)N1 [Boc-Dap(5-hexynoyl)-Dap(N3-Phe)-OMe]
- ring closure, yield over several steps (from C#CCCCC(=O)NC[C@H](NC(=O)OC(C)(C)C)C(=O)N[C@@H](CNC(=O)[C@H](Cc1ccccc1)N=[N+]=[N-])C(=O)OC, 16-membered ring): 99%
